The source of these data is paper PMC3082566, “PTB Domain-Directed Substrate Targeting in a Tyrosine Kinase from the Unicellular Choanoflagellate Monosiga brevicollis” (PLoS ONE, 2011).

“Also recorded” adds a separate entry of the source.

In assay [1] the test system is HMTK1. As to the kind of experiment: Binding of purified HMTK1 to immobilized pYEEI peptide. On the set-up: species or system Monosiga brevicollis. Conditions: 20 µg protein, 30 µl immobilized peptide, 1 hour at 4°C; Coomassie; Fig. 3A. As for the experimental part: (§1) The PTB ligand-containing peptide, Phe-containing PTB control, and pYEEI peptide (EPQpYEEIG) were linked to Affi-Gel 15 resin (Bio-Rad) following the manufacturer's protocols. Purified HMTK1 or the isolated PTB domain were incubated for 1 hour at 4°C with the immobilized peptides. After binding, the beads were washed 4 times with 1 ml of binding buffer (50 mM Tris-HCl pH 7.5, 5 mM EDTA, 100 mM NaCl, 0.1% Triton X-100, 1 mM DTT, 0.5 mM Na3VO4). Bound proteins were eluted with SDS-PAGE loading buffer, separated by 10% SDS-PAGE, and visualized either by Coomassie blue staining or by Western blotting.
(§2) Figure 3 Binding reactions with pYEEI-containing peptide. (A). Purified HMTK1 or c-Src (20 µg) were mixed with 30 µl of immobilized pYEEI peptide (pY) or control resin (C) in total volumes of 175 µl for 1 hour at 4°C. After binding, the resins were washed 4 times with 200 µl of binding buffer. Bound proteins were eluted with SDS-PAGE sample buffer and analyzed by gel electrophoresis with Coomassie blue staining. (B). The isolated HMTK1 PTB domain (8 µg) was incubated with 50 µl of immobilized pYEEI peptide (pY) or control resin (C) in total volumes of 400 µl for 1 hour at 4°C. After washing, bound proteins were eluted with SDS-PAGE sample buffer and analyzed by Western blotting with anti-GST antibody. (C). […] After washing, bound proteins were analyzed by anti-FLAG Western blotting. […]

The subject of assay [2] is FLAG-tagged wild-type HMTK1. As to the kind of experiment: Pulldown of FLAG-tagged wild-type HMTK1 from SYF cell lysates with immobilized peptides. In kind it is binding, Monosiga brevicollis. Particulars: immobilized peptide; anti-FLAG Western; Fig. 3C. The protocol:
(§3) For expression in insect cells, HMTK1 DNA (encoding residues 341–761) was cloned into the EcoRI site of pFastbac-Hta (Invitrogen). FLAG-tagged HMTK1 was expressed in mammalian cells by subcloning into the BglII and BamHI sites of p3XFLAG-CMV (Sigma). The ΔPTB version of this construct was prepared by PCR amplification and subsequent recloning into the BamHI and EcoRI sites of p3XFLAG-CMV. Site-directed mutagenesis of FLAG-HMTK1 was carried out using the QuikChange kit (Stratagene). To express the isolated third PTB domain (residues 341–474) in bacterial cells, this PCR fragment was cloned into the EcoRI site of plasmid pGEX-4T-1 (GE Healthcare). All constructs were confirmed by DNA sequencing.
(§4) The PTB ligand-containing peptide, Phe-containing PTB control, and pYEEI peptide (EPQpYEEIG) were linked to Affi-Gel 15 resin (Bio-Rad) following the manufacturer's protocols. Purified HMTK1 or the isolated PTB domain were incubated for 1 hour at 4°C with the immobilized peptides. […]
(§5) Figure 3 Binding reactions with pYEEI-containing peptide. […] Bound proteins were eluted with SDS-PAGE sample buffer and analyzed by gel electrophoresis with Coomassie blue staining. […] After washing, bound proteins were eluted with SDS-PAGE sample buffer and analyzed by Western blotting with anti-GST antibody. […] After washing, bound proteins were analyzed by anti-FLAG Western blotting. […]

The test system of another assay is FLAG-tagged ΔPTB HMTK1. Nature of the assay: Pulldown of FLAG-tagged ΔPTB HMTK1 from SYF cell lysates with immobilized pYEEI. In kind it is binding, Monosiga brevicollis. Conditions: immobilized peptide; anti-FLAG Western; Fig. 3C. The protocol:
as §3, §4, §5

For a further assay, the system named is c-Src. As to the kind of experiment: Binding of purified Src to immobilized pYEEI peptide. Particulars: positive control; 20 µg protein, 30 µl immobilized peptide, 1 hour at 4°C; Coomassie; Fig. 3A. The protocol:
as §1, §2

For assay [3], the system named is isolated HMTK1 PTB domain. As to the kind of experiment: Pulldown of isolated HMTK1 PTB domain with immobilized pYEEI peptide. It is filed as binding, Monosiga brevicollis. Particulars: 8 µg PTB domain, 50 µl immobilized peptide, 1 hour at 4°C; anti-GST Western; Fig. 3B. As for the experimental part:
HMTK1 was expressed in Spodoptera frugiperda (Sf9) insect cells using the Bac-to-Bac system (Invitrogen). Sf9 cells (800 ml) were infected with HMTK1 baculovirus and harvested after three days. Cells were lysed in a French pressure cell, and His-tagged HMTK1 was purified using nickel-nitrilotriacetic acid resin (Qiagen), as described previously. Peak fractions were pooled and concentrated in an Amicon Ultrafiltration device (molecular weight cutoff: 30,000 daltons). The purified protein was stored in 40% glycerol at −20°C. The isolated PTB domain of HMTK1 was produced as a fusion with glutathione S-transferase (GST). E. coli cells (1 liter) expressing the GST fusion protein were lysed in a French pressure cell, and the GST-PTB protein was purified by chromatography on a glutathione-agarose column (Molecular Probes).
The PTB ligand-containing peptide, Phe-containing PTB control, and pYEEI peptide (EPQpYEEIG) were linked to Affi-Gel 15 resin (Bio-Rad) following the manufacturer's protocols. […]
as §5

Assay [4] deals with HMTK1. As to the kind of experiment: Binding of purified HMTK1 to immobilized PTB ligand peptides. Conditions: 6.6 µg HMTK1; peptide on Affi-Gel resin; 1 hour at 4°C; anti-His6 Western; Fig. 5A. On the set-up: species or system Monosiga brevicollis. As for the experimental part:
as §1
Figure 5 Substrate targeting by PTB ligand. (A) Purified HMTK1 (6.6 µg) was incubated with PTB ligand-containing substrate ([…]pYATLG), PTB control substrate ([…]), pYEEI peptide, or control resin in final volumes of 60 µl. After washing, bound proteins were eluted with SDS-PAGE sample buffer and analyzed by Western blotting with anti-His6-tag antibody. (B) The kinase activity of HMTK1 (300 nM) toward the PTB ligand-containing substrate or PTB control substrate (shown schematically) was determined using the phosphocellulose paper assay. The reaction contained 20 mM Tris-HCl (pH 7.4), 10 mM MgCl2, 0.2 mM ATP, 30 µM peptide, and [γ-^32P]-ATP. […] Incorporation of ^32P into the peptides was determined by scintillation counting.

Assay [5] relates to HMTK1. Nature of the assay: Steady-state kinetics, continuous spectrophotometric assay. In kind it is biochemical, Monosiga brevicollis. Particulars: HMTK1 0.3–0.5 µM, peptide 0–700 µM, 100 mM Tris pH 7.4, 10 mM MgCl2, 2 mM ATP, 30°C. As for the experimental part:
Kinase assays were performed by two methods. Initial activity measurements were performed by the phosphocellulose paper binding assay. Reaction mixtures contained 20 mM Tris-HCl (pH 7.4), 10 mM MgCl2, 0.2 mM ATP, [γ-^32P]-ATP (30–50 cpm/pmol), and varying amounts of HMTK1 and peptide substrates. All peptide substrates were purified by high pressure liquid chromatography and characterized by mass spectrometry prior to use. The following substrates were used: c-Src peptide, […]; MbSTAT peptide, […]; RTKB2 peptide 1, […]; RTKB2 peptide 2, […]; SH2 binding substrates (varying linker lengths), […]pYEEIG, […]pYEEIG, and […]pYEEIG; SH2 control substrate, […]. Initial rate kinetic measurements on the PTB ligand-containing substrate ([…]pYATLG) and on the Phe-containing PTB control ([…]) were carried out using a continuous spectrophotometric assay. Reactions were performed at 30°C in a final volume of 50 µl. The reactions contained 100 mM Tris pH 7.4, 10 mM MgCl2, 2 mM ATP, 1.5 mM phosphoenolpyruvate, 90 units/ml of pyruvate kinase, 109 units/ml of lactate dehydrogenase, and 1.2 mg/ml of NADH. For determination of Km values, the enzyme concentrations were 0.3–0.5 µM and the peptide concentrations ranged from 0–700 µM. Kinetic constants were determined by nonlinear fitting to the [substrate] vs. velocity curves using GraphPad Prism 4.

The next assay relates to Hck. Conditions: Src family kinase Hck with the same peptide; ref [24]; cited from earlier work. The text has this:
We selected a pair of peptides for further study. […] We synthesized an individual peptide in which the sequence NFTNPVpYATG was connected to a tyrosine kinase substrate sequence.

Assay [6] deals with HMTK1. Nature of the assay: Substrate targeting: phosphorylation of PTB ligand-containing substrate and control by HMTK1. It is filed as biochemical, Monosiga brevicollis. Particulars: 30 µM peptide, 300 nM HMTK1, 20 mM Tris-HCl pH 7.4, 10 mM MgCl2, 0.2 mM ATP, Fig. 5B. The protocol:
Kinase assays were performed by two methods. Initial activity measurements were performed by the phosphocellulose paper binding assay. Reaction mixtures contained 20 mM Tris-HCl (pH 7.4), 10 mM MgCl2, 0.2 mM ATP, [γ-^32P]-ATP (30–50 cpm/pmol), and varying amounts of HMTK1 and peptide substrates. All peptide substrates were purified by high pressure liquid chromatography and characterized by mass spectrometry prior to use. The following substrates were used: c-Src peptide, […]; MbSTAT peptide, […]; RTKB2 peptide 1, […]; RTKB2 peptide 2, […]; SH2 binding substrates (varying linker lengths), […]pYEEIG, […]pYEEIG, and […]pYEEIG; SH2 control substrate, […]. […] Kinetic constants were determined by nonlinear fitting to the [substrate] vs. velocity curves using GraphPad Prism 4.
Figure 5 Substrate targeting by PTB ligand. […] After washing, bound proteins were eluted with SDS-PAGE sample buffer and analyzed by Western blotting with anti-His6-tag antibody. (B) The kinase activity of HMTK1 (300 nM) toward the PTB ligand-containing substrate or PTB control substrate (shown schematically) was determined using the phosphocellulose paper assay. […] Incorporation of ^32P into the peptides was determined by scintillation counting.

In another assay the test system is HMTK1 PTB domain. Nature of the assay: Peptide array (PepSpots) probed with biotinylated HMTK1 PTB domain. It is filed as binding, Monosiga brevicollis. Particulars: 10 µg/ml PTB, 5% BSA, 20 mM Hepes pH 7.3, 30 min at room temperature; streptavidin-HRP chemiluminescence; Fig. 4A. The text has this:
The PTB domain of HMTK1 was cloned as an EcoR1 fragment into a modified pGEX (GE Healthcare Life Sciences) bicistronic vector pGEX-4T-BiotinN to express the gene of interest and the biotin ligase (BirA) in the same cell ([19]; Chan et al., in press). […] The resulting pGEX-BiotinN-PTB construct was transformed into E. coli BL21(DE3) cells for expression. GST-biotin-PTB protein was purified using glutathione-agarose and desalted using a PD-10 (GE Healthcare) gel filtration column.
N-terminally acetylated 11-residue peptides were synthesized using standard chemistry in situ (PepSpots) on cellulose based matrix (Jerini Biotools). To ensure protein accessibility, each peptide contained a 4-residue spacer consisting of a glycine and 3 β-alanines. All peptides were immobilized via their C-termini. […] Prior to usage, peptide array membranes were washed in binding buffer (20 mM Hepes pH 7.3, 137 mM NaCl, 5 mM KCl, 0.05% Tween-20) and blocked with 5% filtered bovine serum albumin in the same buffer. […] After washing in binding buffer (3×10 min), bound PTB was detected using enhanced chemiluminescence and standard X-ray film.
Figure 4 Peptide array experiment. […] Bound PTB domain was detected using streptavidin-HRP and enhanced chemiluminescence. […]

For another assay, the system named is SYF cells. Nature of the assay: Anti-phosphotyrosine Western blotting of SYF cell lysates. In kind it is cell-based, mammalian. Particulars: 0.1 or 1.0 mM sodium orthovanadate, 20 minutes, 37°C; Fig. S4B.

Procedure for SYF cells: SYF cells were cultured in Dulbecco's modified Eagle's medium (Mediatech, Inc.) supplemented with 10% fetal bovine serum (Sigma) and 1000 UI/ml penicillin, 1000 UI/ml streptomycin and 25 ng/ml amphotericin B (Mediatech, Inc.). SYF cells (2.25×10^6) were plated in 15-cm diameter dishes and transfected after 24 hours using 5–15 µg of DNA and 2 µl TransIT per µg DNA. After 48 hours, the cells were harvested, washed twice with PBS and lysed using radioimmune precipitation assay (RIPA) buffer (50 mM Tris-HCl pH 7.4, 150 mM NaCl, 5 mM EDTA, 1% sodium deoxycholate, 1% Nonidet P-40) supplemented with the protease inhibitors leupeptin (10 µg/ml), aprotinin (10 µg/ml), PMSF (200 µM) and the phosphatase inhibitors Na3VO4 (0.2 mM) and NaF (10 mM). Lysates (50 µg) were separated by 10% SDS-PAGE, transferred to PVDF membranes and probed with the appropriate antibodies. For immunoprecipitation, cell lysates (100 µg) were incubated overnight at 4°C with 40 µl of EZview red anti-Flag M2 affinity gel pre-equilibrated with RIPA buffer in a total volume of 1 ml. The immunocomplexes were washed 4 times, eluted from the beads by adding Laemmli buffer, separated by SDS-PAGE, transferred to PVDF membranes and probed with the appropriate antibodies.
Whole cell lysates were analyzed by SDS-PAGE and Western blotting with anti-pTyr, anti-FLAG, or anti-tubulin antibodies, as indicated. […]

Take “EPQpYEEIG [Src SH2 ligand peptide linked to Affi-Gel 15 resin]”: in the assay on HMTK1 [1], the “binding to purified HMTK1” value is recorded as “bound”. Besides, the “binding to wild-type HMTK1 (SYF lysate)” value in assay [2] is on record as “bound”. Moreover, the “binding to ΔPTB HMTK1 (SYF lysate)” value in the assay with FLAG-tagged ΔPTB HMTK1 is “did not”. Further, in the assay with c-Src, the “binding to purified Src” value was “bound”. For the same substance, the “binding to isolated HMTK1 PTB domain” value in assay [3] is reported as “pYEEI-binding activity was localized to the PTB domain; also recorded: bound”.
For “KKAEEEIYGEFEANFTNPVpYATLG [pTyr peptide]”, in the assay on HMTK1 [4], the “binding to purified HMTK1” value was “bound”. In addition, the Vmax in the assay with HMTK1 [5] is 4.9 µmol/min/mg enzyme. In the assay on HMTK1 [5] (nonlinear fitting), the Km worked out at 33 µM. For the same substance, the “Vmax (Hck)” value with Hck is on record as 3.0 µmol/min/mg enzyme. Also, the “phosphorylation by HMTK1 compared to Phe control” value with HMTK1 [6] (listed as pTyr-containing peptide) is on record as “preferentially phosphorylated”; with HMTK1 [6] (listed as synthetic peptide containing this sequence (with pTyr)), “phosphorylated more efficiently”.
For TNFTNPVYATLG, the “binding of biotinylated PTB domain to array peptides, phosphorylated vs unphosphorylated” value in the assay with HMTK1 PTB domain is listed as “bound much more strongly in the phosphorylated state”.
Consider sodium orthovanadate, for which, in the assay on SYF cells, the “overall phosphorylation in SYF cells” value is “enhanced overall phosphorylation”.
